Measured values: patent US20260207578A1, “COMPOUND BASED ON SULFUR/OXYGEN SUBSTITUTED GLUTARIMIDE-BASED ISOINDOLINONE SKELETON AND USE THEREOF” (Gluetacs Therapeutics (Shanghai) Co., LTD., priority 2022, published 2026)

How the values were obtained:
[1] = molecular target: T1, human Cereblon WT GST-tagged protein (Homo sapiens, UniProt Q96SW2); assay: CRBN-binding affinity, HTRF (CEREBLON BINDING kit); settings: displacement of Thalidomide-Re reagent, 3 hours at room temperature
T1 construct: purchased CISBIO 64BDCRBNPEH
T1 sequence (Q96SW2 whole entry): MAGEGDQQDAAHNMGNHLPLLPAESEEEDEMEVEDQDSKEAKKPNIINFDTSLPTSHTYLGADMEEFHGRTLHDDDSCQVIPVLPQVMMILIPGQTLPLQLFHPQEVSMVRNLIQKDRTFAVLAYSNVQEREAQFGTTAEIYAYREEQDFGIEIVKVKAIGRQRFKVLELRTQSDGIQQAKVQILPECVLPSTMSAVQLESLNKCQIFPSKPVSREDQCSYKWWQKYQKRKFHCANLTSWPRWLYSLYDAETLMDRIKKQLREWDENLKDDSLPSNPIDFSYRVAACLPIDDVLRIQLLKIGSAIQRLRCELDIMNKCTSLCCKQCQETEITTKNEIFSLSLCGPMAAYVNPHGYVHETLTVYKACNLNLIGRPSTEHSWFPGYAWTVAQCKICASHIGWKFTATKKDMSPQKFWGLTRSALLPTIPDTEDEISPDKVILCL
Outline: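 HTRF competition format: compound, GST-tagged wild-type human Cereblon, Thalidomide-Re tracer and GST Eu antibody were combined in PROTAC binding buffer. Binding was derived from emission at 620 nm relative to blank and solvent control wells.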

IKZF3 = molecular target: T2, IKZF3 (Homo sapiens, UniProt Q96SW2+Q9UKT9); assay: Western-blot assay, substrate protein in hPBMCs; format: cell-based; settings: hPBMC cells, 24 hours, tested at 50 nM and 500 nM, table does not say which
T2 construct: endogenous in cells; host or cells: human PBMCs (Milecell Biotechnologies)
T2 sequence (Q9UKT9 whole entry): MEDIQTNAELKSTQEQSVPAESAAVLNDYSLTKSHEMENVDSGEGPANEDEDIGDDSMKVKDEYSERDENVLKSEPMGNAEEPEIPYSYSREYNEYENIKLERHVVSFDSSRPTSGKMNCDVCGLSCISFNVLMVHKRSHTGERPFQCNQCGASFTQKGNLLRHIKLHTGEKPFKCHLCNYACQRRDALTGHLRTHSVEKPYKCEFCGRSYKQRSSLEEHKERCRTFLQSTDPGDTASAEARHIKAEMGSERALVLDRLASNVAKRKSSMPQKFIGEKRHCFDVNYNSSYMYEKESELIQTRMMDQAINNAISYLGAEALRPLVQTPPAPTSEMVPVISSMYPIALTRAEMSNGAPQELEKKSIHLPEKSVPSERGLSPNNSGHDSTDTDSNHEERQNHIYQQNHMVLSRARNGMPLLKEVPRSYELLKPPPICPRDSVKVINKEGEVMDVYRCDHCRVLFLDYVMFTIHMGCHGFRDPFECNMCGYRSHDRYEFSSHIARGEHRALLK
T2 sequence (Q96SW2 whole entry): as the sequence (Q96SW2 whole entry) above
T2 sequence (Q16531 whole entry partner): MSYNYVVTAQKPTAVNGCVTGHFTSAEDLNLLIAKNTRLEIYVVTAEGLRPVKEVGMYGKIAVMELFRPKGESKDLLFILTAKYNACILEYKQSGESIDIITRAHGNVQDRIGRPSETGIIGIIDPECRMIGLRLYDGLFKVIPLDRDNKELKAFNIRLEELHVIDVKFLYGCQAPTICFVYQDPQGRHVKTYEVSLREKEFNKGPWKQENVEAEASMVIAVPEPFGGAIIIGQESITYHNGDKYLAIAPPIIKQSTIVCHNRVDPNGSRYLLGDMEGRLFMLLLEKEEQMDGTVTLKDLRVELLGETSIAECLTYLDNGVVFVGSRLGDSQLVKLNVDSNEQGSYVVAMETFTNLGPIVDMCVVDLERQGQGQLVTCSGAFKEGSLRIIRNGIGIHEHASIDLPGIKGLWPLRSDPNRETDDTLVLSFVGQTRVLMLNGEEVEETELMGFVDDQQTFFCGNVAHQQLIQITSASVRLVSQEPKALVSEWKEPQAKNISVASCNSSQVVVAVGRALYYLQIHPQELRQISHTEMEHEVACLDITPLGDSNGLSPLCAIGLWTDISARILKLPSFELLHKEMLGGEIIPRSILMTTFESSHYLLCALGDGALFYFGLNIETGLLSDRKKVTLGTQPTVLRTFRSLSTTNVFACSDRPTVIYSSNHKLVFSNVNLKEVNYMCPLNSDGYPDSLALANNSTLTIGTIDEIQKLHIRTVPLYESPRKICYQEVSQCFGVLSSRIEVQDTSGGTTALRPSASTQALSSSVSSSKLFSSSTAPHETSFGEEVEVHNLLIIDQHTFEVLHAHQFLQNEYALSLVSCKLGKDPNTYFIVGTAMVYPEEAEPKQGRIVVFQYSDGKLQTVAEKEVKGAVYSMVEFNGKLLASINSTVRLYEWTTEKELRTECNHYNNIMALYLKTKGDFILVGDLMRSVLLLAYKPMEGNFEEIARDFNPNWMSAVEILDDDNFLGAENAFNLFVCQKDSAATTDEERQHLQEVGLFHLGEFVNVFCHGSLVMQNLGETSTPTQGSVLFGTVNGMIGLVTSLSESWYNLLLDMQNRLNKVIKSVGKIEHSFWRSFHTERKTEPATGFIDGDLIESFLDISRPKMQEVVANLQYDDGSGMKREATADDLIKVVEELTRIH
Outline: (§1)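 hPBMCs (1×10^6 cells/mL) exposed 24 h to compound at 50 nM and 500 nM, lysed, and probed by Western blot. Band grayscale normalized to internal control gives % protein remaining versus DMSO; DC50 from concentration-response fit at half DMSO band intensity.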

IKZF1 = molecular target: T3, IKZF1 (Homo sapiens, UniProt Q13422+Q96SW2); assay: Western-blot assay, substrate protein in hPBMCs; format: cell-based; settings: hPBMC cells, 24 hours, tested at 50 nM and 500 nM, table does not say which
T3 construct: endogenous in cells; host or cells: human PBMCs (Milecell Biotechnologies)
T3 sequence (Q13422 whole entry): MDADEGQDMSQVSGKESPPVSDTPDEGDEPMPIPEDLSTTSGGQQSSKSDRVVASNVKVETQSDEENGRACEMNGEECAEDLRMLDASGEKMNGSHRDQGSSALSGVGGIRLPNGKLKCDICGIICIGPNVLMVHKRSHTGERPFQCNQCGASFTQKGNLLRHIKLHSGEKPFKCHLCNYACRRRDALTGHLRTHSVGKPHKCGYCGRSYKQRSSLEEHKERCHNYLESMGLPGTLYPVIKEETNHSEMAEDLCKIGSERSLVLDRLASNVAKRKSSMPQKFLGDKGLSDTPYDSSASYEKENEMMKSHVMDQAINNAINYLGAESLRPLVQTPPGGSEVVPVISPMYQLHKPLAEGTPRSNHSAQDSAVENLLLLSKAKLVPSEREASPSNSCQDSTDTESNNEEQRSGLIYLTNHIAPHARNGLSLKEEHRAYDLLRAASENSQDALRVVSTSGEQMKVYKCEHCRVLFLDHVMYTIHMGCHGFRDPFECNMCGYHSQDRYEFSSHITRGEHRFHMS
T3 sequence (Q96SW2 whole entry): as the sequence (Q96SW2 whole entry) above
T3 sequence (Q16531 whole entry partner): as the sequence (Q16531 whole entry partner) above
Outline: as §1

GSPT1 = molecular target: T4, GSPT1 (Homo sapiens, UniProt P15170+Q96SW2); assay: Western-blot assay, substrate protein in hPBMCs; format: cell-based; settings: hPBMC cells, 24 hours, tested at 50 nM and 500 nM, table does not say which
T4 construct: endogenous in cells; host or cells: human PBMCs (Milecell Biotechnologies)
T4 sequence (P15170 whole entry): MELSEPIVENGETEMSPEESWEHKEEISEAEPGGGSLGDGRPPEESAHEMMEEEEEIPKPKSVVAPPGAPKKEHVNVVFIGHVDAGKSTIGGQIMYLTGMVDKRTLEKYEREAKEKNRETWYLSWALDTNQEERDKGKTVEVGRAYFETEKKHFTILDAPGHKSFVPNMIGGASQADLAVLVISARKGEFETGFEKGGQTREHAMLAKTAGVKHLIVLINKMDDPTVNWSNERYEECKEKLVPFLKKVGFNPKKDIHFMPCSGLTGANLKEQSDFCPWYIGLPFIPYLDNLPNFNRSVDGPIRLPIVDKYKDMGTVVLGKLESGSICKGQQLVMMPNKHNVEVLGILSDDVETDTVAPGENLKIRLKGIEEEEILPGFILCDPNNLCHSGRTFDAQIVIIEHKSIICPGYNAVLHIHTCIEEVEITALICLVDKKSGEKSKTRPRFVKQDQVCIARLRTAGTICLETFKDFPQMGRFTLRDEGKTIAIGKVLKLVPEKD
T4 sequence (Q96SW2 whole entry): as the sequence (Q96SW2 whole entry) above
T4 sequence (Q16531 whole entry partner): as the sequence (Q16531 whole entry partner) above
Outline: (§2)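 Protein levels read by Western blot of lysates from human PBMCs (1×10^6 cells/mL) treated 24 h. Percent remaining is target band over loading-control band, normalised to DMSO-treated cells; DC50 is the concentration halving DMSO-control band intensity, estimated by curve fit.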

IKZF2 = molecular target: T5, IKZF2 (Homo sapiens, UniProt Q96SW2+Q9UKS7); assay: Western-blot assay, substrate protein in hPBMCs; format: cell-based; settings: hPBMC cells, 24 hours, tested at 50 nM and 500 nM, table does not say which
T5 construct: endogenous in cells; host or cells: human PBMCs (Milecell Biotechnologies)
T5 sequence (Q9UKS7 whole entry): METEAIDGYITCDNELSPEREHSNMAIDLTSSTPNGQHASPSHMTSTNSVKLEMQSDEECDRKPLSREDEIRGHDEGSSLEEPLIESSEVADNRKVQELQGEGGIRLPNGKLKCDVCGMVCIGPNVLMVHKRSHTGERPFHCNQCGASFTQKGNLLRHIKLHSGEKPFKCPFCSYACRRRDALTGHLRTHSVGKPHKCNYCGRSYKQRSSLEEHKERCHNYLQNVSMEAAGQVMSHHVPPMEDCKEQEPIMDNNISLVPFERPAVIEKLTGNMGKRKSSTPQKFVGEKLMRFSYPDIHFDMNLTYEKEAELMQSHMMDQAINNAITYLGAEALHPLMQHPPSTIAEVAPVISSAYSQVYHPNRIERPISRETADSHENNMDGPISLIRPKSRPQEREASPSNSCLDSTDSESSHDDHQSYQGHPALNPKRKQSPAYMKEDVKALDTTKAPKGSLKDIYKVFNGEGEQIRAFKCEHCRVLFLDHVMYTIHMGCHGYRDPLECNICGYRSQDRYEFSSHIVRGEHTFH
T5 sequence (Q96SW2 whole entry): as the sequence (Q96SW2 whole entry) above
T5 sequence (Q16531 whole entry partner): as the sequence (Q16531 whole entry partner) above
Outline: as §2

Wee1 = molecular target: T6, Wee1 (Homo sapiens, UniProt P30291+Q96SW2); assay: Western-blot assay, substrate protein in hPBMCs; format: cell-based; settings: hPBMC cells, 24 hours, tested at 50 nM and 500 nM, table does not say which
T6 construct: endogenous in cells; host or cells: human PBMCs (Milecell Biotechnologies)
T6 sequence (P30291 whole entry): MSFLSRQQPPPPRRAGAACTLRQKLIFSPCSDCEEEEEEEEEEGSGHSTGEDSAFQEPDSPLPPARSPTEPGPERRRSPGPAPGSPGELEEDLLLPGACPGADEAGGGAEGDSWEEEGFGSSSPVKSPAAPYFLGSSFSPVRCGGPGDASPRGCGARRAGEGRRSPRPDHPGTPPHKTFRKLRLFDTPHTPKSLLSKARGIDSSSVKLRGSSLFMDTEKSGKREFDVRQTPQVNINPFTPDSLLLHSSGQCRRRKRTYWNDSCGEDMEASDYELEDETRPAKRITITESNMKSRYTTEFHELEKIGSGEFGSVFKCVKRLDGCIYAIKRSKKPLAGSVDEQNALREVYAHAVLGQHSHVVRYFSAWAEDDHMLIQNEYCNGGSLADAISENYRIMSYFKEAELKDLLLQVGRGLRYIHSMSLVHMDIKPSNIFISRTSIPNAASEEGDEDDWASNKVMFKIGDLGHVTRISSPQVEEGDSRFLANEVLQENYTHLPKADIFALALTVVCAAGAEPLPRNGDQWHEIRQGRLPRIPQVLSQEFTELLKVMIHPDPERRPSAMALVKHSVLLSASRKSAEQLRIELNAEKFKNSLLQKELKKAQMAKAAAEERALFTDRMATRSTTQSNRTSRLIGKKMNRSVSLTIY
T6 sequence (Q96SW2 whole entry): as the sequence (Q96SW2 whole entry) above
T6 sequence (Q16531 whole entry partner): as the sequence (Q16531 whole entry partner) above
Outline: as §2

CK1α = molecular target: T7, CK1α (Homo sapiens, UniProt P48729+Q96SW2); assay: Western-blot assay, substrate protein in hPBMCs; format: cell-based; settings: hPBMC cells, 24 hours, tested at 50 nM and 500 nM, table does not say which
T7 construct: endogenous in cells; host or cells: human PBMCs (Milecell Biotechnologies)
Outline: as §2

MV-4-11 = assay: Half inhibitory concentration (IC50) against tumor cells, Cell Counting Kit-8; format: cell-based; settings: Homo sapiens, MV4-11, CCK-8, 96 h treatment, read-out: inhibitory activity (IC50, nM) against tumor cells proliferation
Experimental: The tumor cells used herein were cultured in a cell culture medium listed in table A at 37° C. in an incubator with 5% CO2.
After the cells were treated with the compounds of the present disclosure for a period of time, the cell viability detection reagent was added to the culture medium for cell viability assessment according to the instructions provided with the CCK-8 kit. […] The growth inhibition of the compounds of the present disclosure on cells was plotted by Prism Graphpad software, and the IC50 values of the compounds of the present disclosure were calculated therefrom.

| Structure (SMILES) | IC50 [1] [nM] | substrate protein remaining % (IKZF3) | substrate protein remaining % (IKZF1) | substrate protein remaining % (GSPT1) | substrate protein remaining % (IKZF2) | substrate protein remaining % (Wee1) | substrate protein remaining % (CK1α) | IC50 (MV-4-11) [nM] |
| --- | --- | --- | --- | --- | --- | --- | --- | --- |
| O=C1CCC(N2Cc3cc(OC4CCNCC4)ccc3C2=O)C(=O)N1 (centres unmarked) [GT-03612, 3-(1-oxo-5-(piperidin-4-yloxy)isoindolin-2-yl)piperidine-2,6-dione] | 1000 to 1900 | A (0%≤ substrate protein remaining % ≤80%) | A (0%≤ substrate protein remaining % ≤80%) | A (0%≤ substrate protein remaining % ≤80%) | A (0%≤ substrate protein remaining % ≤80%) | A (0%≤ substrate protein remaining % ≤80%) | A (0%≤ substrate protein remaining % ≤80%) | – |
| O=C1CCC(N2Cc3cc(OC4CN(CC5=C(c6ccc(F)cc6)CCCC5)C4)ccc3C2=O)C(=O)N1 (centres unmarked) [GT-06302, 3-(5-((1-((4′-fluoro-3,4,5,6-tetrahydro-[1,1′-biphenyl]-2-yl)methyl)azetidin-3-yl)oxy)-1-oxoisoindolin-2-yl)piperidine-2,6-dione] | 500 to 1000 | A (0%≤ substrate protein remaining % ≤80%) | A (0%≤ substrate protein remaining % ≤80%) | A (0%≤ substrate protein remaining % ≤80%) | A (0%≤ substrate protein remaining % ≤80%) | A (0%≤ substrate protein remaining % ≤80%) | A (0%≤ substrate protein remaining % ≤80%) | – |
| O=C1CCC(N2Cc3cc(SC4CCCN(C(c5ccccc5)c5ccccc5)CC4)ccc3C2=O)C(=O)N1 (centres unmarked) [GT-06645, 3-(5-((1-benzhydrylazepan-4-yl)thio)-1-oxoisoindolin-2-yl)piperidine-2,6-dione] | < 500 | – | – | A (0%≤ substrate protein remaining % ≤80%) | – | – | – | 500 to 1000 |
| O=C1CCC(N2Cc3cc(OC4CN(Cc5ccc(-c6ccncc6)nc5)C4)ccc3C2=O)C(=O)N1 (centres unmarked) [GT-06809, 3-(5-((1-([2,4′-bipyridin]-5-ylmethyl)azetidin-3-yl)oxy)-1-oxoisoindolin-2-yl)piperidine-2,6-dione] | 500 to 1000 | A (0%≤ substrate protein remaining % ≤80%) | A (0%≤ substrate protein remaining % ≤80%) | A (0%≤ substrate protein remaining % ≤80%) | A (0%≤ substrate protein remaining % ≤80%) | A (0%≤ substrate protein remaining % ≤80%) | A (0%≤ substrate protein remaining % ≤80%) | – |
| CC1(C)CCC(CN2CCC(Oc3ccc4c(c3)CN(C3CCC(=O)NC3=O)C4=O)C2)=C(c2ccc(Cl)cc2)C1 (centres unmarked) [GT-06815, 3-(5-((1-((4′-chloro-5,5-dimethyl-3,4,5,6-tetrahydro-[1,1′-biphenyl]-2-yl)methyl)pyrrolidin-3-yl)oxy)-1-oxoisoindolin-2-yl)piperidine-2,6-dione] | 1000 to 1900 | A (0%≤ substrate protein remaining % ≤80%) | A (0%≤ substrate protein remaining % ≤80%) | A (0%≤ substrate protein remaining % ≤80%) | A (0%≤ substrate protein remaining % ≤80%) | A (0%≤ substrate protein remaining % ≤80%) | A (0%≤ substrate protein remaining % ≤80%) | 500 to 1000 |
| CC1(C)CCC(CN2CCC3(CCC(Sc4ccc5c(c4)CN(C4CCC(=O)NC4=O)C5=O)CC3)CC2)=C(c2ccc(Cl)cc2)C1 (centres unmarked) [GT-06874, 3-(5-((3-((4′-chloro-5,5-dimethyl-3,4,5,6-tetrahydro-[1,1′-biphenyl]-2-yl)methyl)-3-azaspiro[5.5]undecan-9-yl)thio)-1-oxoisoindolin-2-yl)piperidine-2,6-dione] | 1000 to 1900 | A (0%≤ substrate protein remaining % ≤80%) | – | A (0%≤ substrate protein remaining % ≤80%) | A (0%≤ substrate protein remaining % ≤80%) | A (0%≤ substrate protein remaining % ≤80%) | A (0%≤ substrate protein remaining % ≤80%) | 100 to 500 |
| CC1(C)CCC(C(=O)N2CCC3(CC2)CC(Sc2ccc4c(c2)CN(C2CCC(=O)NC2=O)C4=O)C3)=C(c2ccc(Cl)cc2)C1 (centres unmarked) [GT-06918, 3-(5-((7-(4′-chloro-5,5-dimethyl-3,4,5,6-tetrahydro-[1,1′-biphenyl]-2-carbonyl)-7-azaspiro[3.5]nonan-2-yl)thio)-1-oxoisoindolin-2-yl)piperidine-2,6-dione] | 500 to 1000 | A (0%≤ substrate protein remaining % ≤80%) | A (0%≤ substrate protein remaining % ≤80%) | – | A (0%≤ substrate protein remaining % ≤80%) | A (0%≤ substrate protein remaining % ≤80%) | – | 100 to 500 |
| O=C1CCC(N2Cc3cc(OC4CCCN(C(c5ccccc5)c5ccccc5)CC4)ccc3C2=O)C(=O)N1 (centres unmarked) [GT-06928, 3-(5-((1-benzhydrylazepan-4-yl)oxy)-1-oxoisoindolin-2-yl)piperidine-2,6-dione] | 500 to 1000 | – | – | – | A (0%≤ substrate protein remaining % ≤80%) | A (0%≤ substrate protein remaining % ≤80%) | – | 10 to 50 |
| O=C1CCC(N2Cc3cc(OC4CCCN(Cc5ccccc5-c5ccc(Cl)cc5)CC4)ccc3C2=O)C(=O)N1 (centres unmarked) [GT-06934, 3-(5-((1-((4′-chloro-[1,1′-biphenyl]-2-yl)methyl)azepan-4-yl)oxy)-1-oxoisoindolin-2-yl)piperidine-2,6-dione] | < 500 | – | – | – | A (0%≤ substrate protein remaining % ≤80%) | A (0%≤ substrate protein remaining % ≤80%) | A (0%≤ substrate protein remaining % ≤80%) | 100 to 500 |
| O=C1CCC(N2Cc3cc(OC4CCCN(C(=O)c5ccccc5-c5ccc(Cl)cc5)CC4)ccc3C2=O)C(=O)N1 (centres unmarked) [GT-06935, 3-(5-((1-(4′-chloro-[1,1′-biphenyl]-2-carbonyl)azepan-4-yl)oxy)-1-oxoisoindolin-2-yl)piperidine-2,6-dione] | < 500 | – | – | A (0%≤ substrate protein remaining % ≤80%) | – | A (0%≤ substrate protein remaining % ≤80%) | A (0%≤ substrate protein remaining % ≤80%) | 100 to 500 |
| O=C1CCC(N2Cc3cc(OC4CC5CN(C(c6ccccc6)c6ccccc6)CC5C4)ccc3C2=O)C(=O)N1 (centres unmarked) [GT-06955, 3-(5-((2-benzhydryloctahydro-cyclopenta[c]pyrrol-5-yl)oxy)-1-oxoisoindolin-2-yl)piperidine-2,6-dione] | < 500 | – | A (0%≤ substrate protein remaining % ≤80%) | – | A (0%≤ substrate protein remaining % ≤80%) | – | A (0%≤ substrate protein remaining % ≤80%) | 50 to 100 |
| O=C1CCC(N2Cc3cc(OC4CC5(CCN(C(c6ccccc6)c6ccccc6)CC5)C4)ccc3C2=O)C(=O)N1 (centres unmarked) [GT-06956, 3-(5-((7-benzhydryl-7-azaspiro[3.5]nonan-2-yl)oxy)-1-oxoisoindolin-2-yl)piperidine-2,6-dione] | < 500 | A (0%≤ substrate protein remaining % ≤80%) | A (0%≤ substrate protein remaining % ≤80%) | – | A (0%≤ substrate protein remaining % ≤80%) | A (0%≤ substrate protein remaining % ≤80%) | A (0%≤ substrate protein remaining % ≤80%) | 500 to 1000 |
| CC1(C)CCC(CN2CCC(Sc3ccc4c(c3)CN(C3CCC(=O)NC3=O)C4=O)C(F)(F)C2)=C(c2ccc(Cl)cc2)C1 (centres unmarked) [GT-06960, 3-(5-((1-((4′-chloro-5,5-dimethyl-3,4,5,6-tetrahydro-[1,1′-biphenyl]-2-yl)methyl)-3,3-difluoropiperidin-4-yl)thio)-1-oxoisoindolin-2-yl)piperidine-2,6-dione] | – | – | – | A (0%≤ substrate protein remaining % ≤80%) | – | A (0%≤ substrate protein remaining % ≤80%) | A (0%≤ substrate protein remaining % ≤80%) | 500 to 1000 |
| CC1(C)CCC(C(=O)N2CCC3(CCC(Sc4ccc5c(c4)CN(C4CCC(=O)NC4=O)C5=O)CC3)CC2)=C(c2ccc(Cl)cc2)C1 (centres unmarked) [GT-07016, 3-(5-((3-(4′-chloro-5,5-dimethyl-3,4,5,6-tetrahydro-[1,1′-biphenyl]-2-carbonyl)-3-azaspiro[5.5]undecan-9-yl)thio)-1-oxoisoindolin-2-yl)piperidine-2,6-dione] | 1000 to 1900 | – | – | – | – | – | – | 500 to 1000 |
